IC50, clinical improvement and JAK2/JAK1 data for seven molecules are collected here from US9498467B2, “Treatment of chronic neutrophilic leukemia (CNL) and atypical chronic myeloid leukemia (aCML) by inhibitors of JAK1” (Incyte Corporation, priority 2014, dated 2016).

SMILES strings stand for the structures.

For assay [1], the system named is GCSF induced pSTAT3 in human neutrophils. The assay is described as follows: JAK human neutrophil assay (pSTAT3 ELISA). The settings on record: 0.25 h, read-out: IC50 (inhibition of pSTAT3).
Assay [2] deals with CNL carrying a JAK-activating CSF3R mutation. As to conditions: one patient with CNL carrying a JAK-activating CSF3R mutation; cited from earlier work.
Assay [3] addresses T1, human JAK2 (a.a. 828-1132) (Homo sapiens, UniProt O60674).
T1 construct: JAK2 (a.a. 828-1132); made in house; host or cells: insect cells (baculovirus)
In words: In vitro JAK kinase assay (HTRF), JAK2. The class given is biochemical. The settings on record: ratio of IC50s at 1 mM ATP.

The target in assay [4] is T2, human JAK1 (a.a. 837-1142) (Homo sapiens, UniProt P23458).
T2 construct: human JAK1 (a.a. 837-1142); made in house; host or cells: insect cells (baculovirus)
T2 sequence (P23458 849-1154): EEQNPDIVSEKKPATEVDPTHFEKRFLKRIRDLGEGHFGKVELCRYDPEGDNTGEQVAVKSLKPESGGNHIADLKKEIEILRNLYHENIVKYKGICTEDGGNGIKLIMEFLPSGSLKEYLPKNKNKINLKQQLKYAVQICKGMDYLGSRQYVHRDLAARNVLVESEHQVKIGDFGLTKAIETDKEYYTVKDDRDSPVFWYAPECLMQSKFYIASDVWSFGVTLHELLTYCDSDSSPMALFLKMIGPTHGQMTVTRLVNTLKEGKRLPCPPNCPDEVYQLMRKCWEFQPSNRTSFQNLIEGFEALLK
In words: In vitro JAK kinase assay (HTRF), JAK1. The class given is biochemical. As to conditions: 1 mM ATP. (In general: In TR-FRET formats the signal depends on donor and acceptor labels being close together.)

T1 sequence (O60674 828-1132): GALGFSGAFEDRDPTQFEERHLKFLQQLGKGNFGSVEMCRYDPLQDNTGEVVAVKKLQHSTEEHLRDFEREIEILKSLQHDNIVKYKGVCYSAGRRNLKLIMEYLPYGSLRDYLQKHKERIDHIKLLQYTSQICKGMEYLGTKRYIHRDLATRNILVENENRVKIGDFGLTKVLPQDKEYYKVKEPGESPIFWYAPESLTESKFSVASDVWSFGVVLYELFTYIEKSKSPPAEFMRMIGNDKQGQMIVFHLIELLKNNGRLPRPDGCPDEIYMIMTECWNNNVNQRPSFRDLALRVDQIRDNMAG

One may read the IC50 as the point on the concentration scale where inhibition reaches its midpoint. Take `N#CCC(C1CCCC1)n1cc(-c2ncnc3[nH]ccc23)cn1` (stereo in doubt) [ruxolitinib, (3R)-3-cyclopentyl-3-[4-(7H-pyrrolo[2,3-d]pyrimidin-4-yl)-1H-pyrazol-1-yl]propanenitrile, reference compound]: the IC50 in assay [1] was less than 100 nM. In addition, in assay [2], the clinical improvement entry is recorded as “Marked clinical improvement”.

Consider `C[C@@H](O)c1nc2cnc3ccsc3c2n1[C@H]1CC[C@H](CC#N)OC1` [Compound 1, ((2R,5S)-5-{2-[(1R)-1-hydroxyethyl]-1H-imidazo[4,5-d]thieno[3,2-b]pyridin-1-yl}tetrahydro-2H-pyran-2-yl)acetonitrile], for which the IC50 in assay [1] and in assay [4] was less than 100 nM throughout. Further, the JAK2/JAK1 in assay [3] is given as more than 10.

In the case of `Cc1n[nH]c(C)c1-c1cnn(C2(CC#N)CN(c3cc(F)c(C(=O)N[C@@H](C)C(F)(F)F)cc3F)C2)c1` [Compound 2, 4-[3-(cyanomethyl)-3-(3′,5′-dimethyl-1H,1′H-4,4′-bipyrazol-1-yl)azetidin-1-yl]-2,5-difluoro-N-[(1S)-2,2,2-trifluoro-1-methylethyl]benzamide], in assay [1], the IC50 is less than 100 nM.

As for `N#CCC1(n2cc(-c3ncnc4[nH]ccc34)cn2)CN(C2CCN(C(=O)c3ccnc(C(F)(F)F)c3F)CC2)C1` [Compound 7, {1-{1-[3-Fluoro-2-(trifluoromethyl)iso-nicotinoyl]piperidin-4-yl}-3-[4-(7H-pyrrolo[2,3-d]pyrimidin-4-yl)-1H-pyrazol-1-yl]azetidin-3-yl}acetonitrile], the results for the IC50 in assay [1] and in assay [4] were less than 100 nM and less than 10 nM, respectively. In addition, in assay [3], the JAK2/JAK1 is reported as more than 10.

For the molecule `C[C@@H](O)CNCc1cc(OC2CCN([C@H]3C[C@](CC#N)(n4cc(-c5ncnc6[nH]ccc56)cn4)C3)CC2)nc(C(F)(F)F)c1` [Compound 24, {trans-3-(4-{[4-({[(2R)-2-hydroxypropyl]amino}methyl)-6-(trifluoromethyl)pyridin-2-yl]oxy}piperidin-1-yl)-1-[4-(7H-pyrrolo[2,3-d]pyrimidin-4-yl)-1H-pyrazol-1-yl]cyclobutyl} acetonitrile], the JAK2/JAK1 in assay [3] was more than 10. The molecule also gave an IC50 in assay [4] of less than 10 nM.

Take `C[C@H](O)CNCc1cc(OC2CCN([C@H]3C[C@](CC#N)(n4cc(-c5ncnc6[nH]ccc56)cn4)C3)CC2)nc(C(F)(F)F)c1` [Compound 25, {trans-3-(4-{[4-({[(2S)-2-hydroxypropyl]amino}methyl)-6-(trifluoromethyl)pyridin-2-yl]oxy}piperidin-1-yl)-1-[4-(7H-pyrrolo[2,3-d]pyrimidin-4-yl)-1H-pyrazol-1-yl]cyclobutyl} acetonitrile]: the JAK2/JAK1 in assay [3] is more than 10. The IC50 in assay [4] was less than 10 nM.

Take `N#CC[C@]1(n2cc(-c3ncnc4[nH]ccc34)cn2)C[C@H](N2CCC(Oc3cc(CCO)cc(C(F)(F)F)n3)CC2)C1` [Compound 26, {trans-3-(4-{[4-(2-hydroxyethyl)-6-(trifluoromethyl)pyridin-2-yl]oxy}piperidin-1-yl)-1-[4-(7H-pyrrolo[2,3-d]pyrimidin-4-yl)-1H-pyrazol-1-yl]cyclobutyl} acetonitrile]: the JAK2/JAK1 in assay [3] is more than 10. Moreover, the IC50 in assay [4] was less than 10 nM.
